Measured values as given in ChEMBL document CHEMBL1142439 (Bioorg Med Chem, 2008).
Activity calls are given as the source filed them. The rule behind the calls is not given here.

What was measured:
D(1A) dopamine receptor = D(1A) dopamine receptor (Homo sapiens, UniProt P21728); experiment: Agonist activity at human recombinant dopamine D1 receptor expressed in CHO cells assessed as stimulation of cAMP production; assay type: functional, cell-based
D(2) dopamine receptor = D(2) dopamine receptor (Homo sapiens, UniProt P14416); experiment: Agonist activity at human dopamine D2 receptor expressed in CHO cells assessed as inhibition of forskolin-stimulated cAMP production; assay type: functional, cell-based
Chain of D(2) dopamine receptor (P14416 whole entry): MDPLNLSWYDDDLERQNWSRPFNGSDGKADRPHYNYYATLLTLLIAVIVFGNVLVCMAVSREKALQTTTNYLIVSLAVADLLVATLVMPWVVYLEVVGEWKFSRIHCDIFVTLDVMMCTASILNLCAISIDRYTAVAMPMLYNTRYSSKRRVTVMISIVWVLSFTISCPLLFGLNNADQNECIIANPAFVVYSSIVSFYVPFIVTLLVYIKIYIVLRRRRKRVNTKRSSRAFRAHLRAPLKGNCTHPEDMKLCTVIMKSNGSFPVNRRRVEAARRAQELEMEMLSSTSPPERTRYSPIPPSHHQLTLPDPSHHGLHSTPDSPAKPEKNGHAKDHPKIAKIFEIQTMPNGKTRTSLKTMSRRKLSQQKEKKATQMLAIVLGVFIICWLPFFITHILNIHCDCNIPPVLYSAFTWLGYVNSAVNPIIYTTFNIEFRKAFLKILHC

Rattus norvegicus [1] = experiment: Decrease in dopamine release in Wistar rat striatal at 1 nmol/kg, sc after 90 mins; assay type: functional; design: scale not given: the % may be the effect or the level left
Rattus norvegicus [2] = experiment: Decrease in dopamine release in Wistar rat striatal at 10 nmol/kg, sc after 90 mins; assay type: functional; design: scale not given: the % may be the effect or the level left
Rattus norvegicus [3] = experiment: Decrease in dopamine release in Wistar rat striatal at 1 nmol/kg, sc after 6 hrs; assay type: functional; design: scale not given: the % may be the effect or the level left
Rattus norvegicus [4] = experiment: Decrease in dopamine release in Wistar rat striatal at 100 nmol/kg, po after 45 mins; assay type: functional; design: scale not given: the % may be the effect or the level left
Rattus norvegicus [5] = experiment: Induction of locomotor activity in Wistar rat at 10 nmol/kg, sc; assay type: functional, organism-based
Rattus norvegicus [6] = experiment: Induction of penile grooming in Wistar rat at 10 nmol/kg, sc; assay type: functional, organism-based
Rattus norvegicus [7] = experiment: Induction of yawning in Wistar rat at 10 nmol/kg, sc; assay type: functional, organism-based
Rattus norvegicus [8] = experiment: Induction of sniffing in Wistar rat at 10 nmol/kg, sc; assay type: functional, organism-based
Rattus norvegicus [9] = experiment: Induction of rearing grooming in Wistar rat at 10 nmol/kg, sc; assay type: functional, organism-based

Chain of D(1A) dopamine receptor (P21728 whole entry): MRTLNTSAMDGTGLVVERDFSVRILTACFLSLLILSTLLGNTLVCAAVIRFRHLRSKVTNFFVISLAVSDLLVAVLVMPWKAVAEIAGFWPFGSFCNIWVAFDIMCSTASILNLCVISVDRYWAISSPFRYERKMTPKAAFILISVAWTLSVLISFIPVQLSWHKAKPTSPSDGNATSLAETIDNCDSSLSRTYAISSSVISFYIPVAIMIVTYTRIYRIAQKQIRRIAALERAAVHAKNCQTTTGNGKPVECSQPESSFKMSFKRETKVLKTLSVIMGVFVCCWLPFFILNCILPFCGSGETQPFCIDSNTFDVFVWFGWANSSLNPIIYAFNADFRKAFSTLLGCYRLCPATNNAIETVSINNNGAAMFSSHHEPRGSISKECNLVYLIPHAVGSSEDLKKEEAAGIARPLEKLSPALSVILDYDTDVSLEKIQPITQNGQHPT

In the case of `CCCN1CCC[C@@H]2Cc3c(ccc(O)c3O)C[C@H]21`, the EC50 (D(1A) dopamine receptor) is reported as 25 nM, the EC50 (D(2) dopamine receptor) is reported as 0.65 nM and the Activity (Rattus norvegicus [1]) is reported as 20%. It also gave an Activity (Rattus norvegicus [2]) of 30%, an Activity (Rattus norvegicus [3]) of 30% and an Activity (Rattus norvegicus [4]) of 40%. The Activity (Rattus norvegicus [5]) was “Active”, the Activity (Rattus norvegicus [6]) was “Active” and the Activity (Rattus norvegicus [7]) was “Active”. For the same compound, the Activity (Rattus norvegicus [8]) was “Active” and the Activity (Rattus norvegicus [9]) was “Active”.
